From the supplement of paper PMC10307832

Legend:
Assay in all cases: relative viability (nuclei count vs DMSO), 5 days (fraction); higher = more cells survive
NCI-H1648 = tested on: NCI-H1648
Summary of the method: (§1)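 Dosing by pin tool came one day after lung cancer cell lines were seeded in 1536-well plates, using either one drug or a fixed anchor-drug dose plus five library-drug doses (not always all listed) in √10 steps. After 5 days, nuclei were counted on 4× images. Relative viability is treated-well nuclei count divided by vehicle-well nuclei count, and values are medians of duplicate plates.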

NCI-H2023 = tested on: NCI-H2023
Summary of the method: as §1

NCI-H2170 = tested on: NCI-H2170
Summary of the method: as §1

NCI-H520 = tested on: NCI-H520
Summary of the method: as §1

NCI-H727 = tested on: NCI-H727
Summary of the method: as §1

A549 = tested on: A549
Summary of the method: as §1

Calu-6 = tested on: Calu-6
Summary of the method: as §1

EBC-1 = tested on: EBC-1
Summary of the method: as §1

IA-LM = tested on: IA-LM
Summary of the method: as §1

NCI-H1299 = tested on: NCI-H1299
Summary of the method: as §1

NCI-H1703 = tested on: NCI-H1703
Summary of the method: as §1

In the case of `Cc1cn(-c2cc(NC(=O)c3ccc(C)c(Nc4nccc(-c5cccnc5)n4)c3)cc(C(F)(F)F)c2)cn1` [Nilotinib] + CC(=O)c1c(C)c2cnc(Nc3ccc(N4CCNCC4)cn3)nc2n(C2CCCC2)c1=O [Palbociclib] (partner 0.5 µM), the relative viability (NCI-H1648; first compound 0.001 µM) is reported as 0.244, the relative viability (NCI-H1648; first compound 0.003162 µM) is reported as 0.319 and the relative viability (NCI-H1648; first compound 0.01 µM) is reported as 0.294. It also gave a relative viability (NCI-H1648; first compound 0.03162 µM) of 0.254, a relative viability (NCI-H1648; first compound 0.1 µM) of 0.268 and a relative viability (NCI-H2023; first compound 0.001 µM) of 0.395. It also gave a relative viability (NCI-H2023; first compound 0.003162 µM) of 0.401, a relative viability (NCI-H2023; first compound 0.01 µM) of 0.457 and a relative viability (NCI-H2023; first compound 0.03162 µM) of 0.333. The relative viability (NCI-H2023; first compound 0.1 µM) was 0.419, the relative viability (NCI-H2170; first compound 0.001 µM) was 0.373 and the relative viability (NCI-H2170; first compound 0.003162 µM) was 0.474. For the same compound, the relative viability (NCI-H2170; first compound 0.01 µM) was 0.436, the relative viability (NCI-H2170; first compound 0.03162 µM) was 0.379 and the relative viability (NCI-H2170; first compound 0.1 µM) was 0.44. It also gave a relative viability (NCI-H520; first compound 0.001 µM) of 0.21, a relative viability (NCI-H520; first compound 0.003162 µM) of 0.219 and a relative viability (NCI-H520; first compound 0.01 µM) of 0.241. For the same compound, the relative viability (NCI-H520; first compound 0.03162 µM) was 0.218, the relative viability (NCI-H520; first compound 0.1 µM) was 0.225 and the relative viability (NCI-H727; first compound 0.001 µM) was 0.667. The relative viability (NCI-H727; first compound 0.003162 µM) was 0.69, the relative viability (NCI-H727; first compound 0.01 µM) was 0.71 and the relative viability (NCI-H727; first compound 0.03162 µM) was 0.593. The relative viability (NCI-H727; first compound 0.1 µM) was 0.633.

`Cc1cn(-c2cc(NC(=O)c3ccc(C)c(Nc4nccc(-c5cccnc5)n4)c3)cc(C(F)(F)F)c2)cn1` [Nilotinib] + CC(=O)Nc1cccc(-n2c(=O)n(C3CC3)c(=O)c3c(Nc4ccc(I)cc4F)n(C)c(=O)c(C)c32)c1 [Trametinib] (partner 0.02 µM) gave a relative viability (NCI-H1648; first compound 0.001 µM) of 0.436, a relative viability (NCI-H1648; first compound 0.003162 µM) of 0.434 and a relative viability (NCI-H1648; first compound 0.01 µM) of 0.44. The relative viability (NCI-H1648; first compound 0.03162 µM) was 0.331, the relative viability (NCI-H1648; first compound 0.1 µM) was 0.329 and the relative viability (NCI-H2023; first compound 0.001 µM) was 0.485. It also gave a relative viability (NCI-H2023; first compound 0.003162 µM) of 0.619, a relative viability (NCI-H2023; first compound 0.01 µM) of 0.508 and a relative viability (NCI-H2023; first compound 0.03162 µM) of 0.329. For the same compound, the relative viability (NCI-H2023; first compound 0.1 µM) was 0.433, the relative viability (NCI-H2170; first compound 0.001 µM) was 0.816 and the relative viability (NCI-H2170; first compound 0.003162 µM) was 1.23. For the same compound, the relative viability (NCI-H2170; first compound 0.01 µM) was 1.1, the relative viability (NCI-H2170; first compound 0.03162 µM) was 0.842 and the relative viability (NCI-H2170; first compound 0.1 µM) was 0.868. For the same compound, the relative viability (NCI-H520; first compound 0.001 µM) was 0.612, the relative viability (NCI-H520; first compound 0.003162 µM) was 0.747 and the relative viability (NCI-H520; first compound 0.01 µM) was 0.738. It also gave a relative viability (NCI-H520; first compound 0.03162 µM) of 0.392, a relative viability (NCI-H520; first compound 0.1 µM) of 0.39 and a relative viability (NCI-H727; first compound 0.001 µM) of 0.405. For the same compound, the relative viability (NCI-H727; first compound 0.003162 µM) was 0.388, the relative viability (NCI-H727; first compound 0.01 µM) was 0.355 and the relative viability (NCI-H727; first compound 0.03162 µM) was 0.368. It also gave a relative viability (NCI-H727; first compound 0.1 µM) of 0.345.

Work on `Cc1csc(=NC2CCCCC2)n1/N=C/c1ccc(O)c(O)c1O` [MIM1] + Nc1nc2[nH]cc(CCc3ccc(C(=O)N[C@@H](CCC(=O)O)C(=O)O)cc3)c2c(=O)[nH]1 [Pemetrexed] (partner 0.2 µM) yielded a relative viability (NCI-H1648; first compound 0.2 µM) of 0.874, a relative viability (NCI-H1648; first compound 0.6325 µM) of 0.688 and a relative viability (NCI-H1648; first compound 2 µM) of 0.584. The relative viability (NCI-H1648; first compound 6.325 µM) was 0.544, the relative viability (NCI-H1648; first compound 20 µM) was 0.455 and the relative viability (NCI-H2023; first compound 0.2 µM) was 0.235. The relative viability (NCI-H2023; first compound 0.6325 µM) was 0.337, the relative viability (NCI-H2023; first compound 2 µM) was 0.219 and the relative viability (NCI-H2023; first compound 6.325 µM) was 0.098. The relative viability (NCI-H2023; first compound 20 µM) was 0.0763, the relative viability (NCI-H2170; first compound 0.2 µM) was 0.265 and the relative viability (NCI-H2170; first compound 0.6325 µM) was 0.252. The relative viability (NCI-H2170; first compound 2 µM) was 0.247, the relative viability (NCI-H2170; first compound 6.325 µM) was 0.254 and the relative viability (NCI-H2170; first compound 20 µM) was 0.215. For the same compound, the relative viability (NCI-H520; first compound 0.2 µM) was 0.693, the relative viability (NCI-H520; first compound 0.6325 µM) was 0.722 and the relative viability (NCI-H520; first compound 2 µM) was 0.752. The relative viability (NCI-H520; first compound 6.325 µM) was 0.547 and the relative viability (NCI-H520; first compound 20 µM) was 0.306.

`CN1CCN(CCOc2cc(OC3CCOCC3)c3c(Nc4c(Cl)ccc5c4OCO5)ncnc3c2)CC1` [Saracatinib] + Cc1nc(NC(=O)N2CCC[C@H]2C(N)=O)sc1-c1ccnc(C(C)(C)C(F)(F)F)c1 [Alpelisib] (partner 2 µM) was tested, and the relative viability (A549; first compound 0.02 µM) was 0.799, the relative viability (A549; first compound 0.2 µM) was 0.718 and the relative viability (A549; first compound 0.6325 µM) was 0.861. It also gave a relative viability (A549; first compound 2 µM) of 0.5, a relative viability (Calu-6; first compound 0.02 µM) of 1.02 and a relative viability (Calu-6; first compound 0.2 µM) of 0.683. The relative viability (Calu-6; first compound 0.6325 µM) was 0.721, the relative viability (Calu-6; first compound 2 µM) was 0.76 and the relative viability (EBC-1; first compound 0.02 µM) was 0.929. The relative viability (EBC-1; first compound 0.2 µM) was 0.764, the relative viability (EBC-1; first compound 0.6325 µM) was 0.898 and the relative viability (EBC-1; first compound 2 µM) was 0.906. For the same compound, the relative viability (IA-LM; first compound 0.02 µM) was 0.93, the relative viability (IA-LM; first compound 0.6325 µM) was 1.44 and the relative viability (IA-LM; first compound 2 µM) was 0.958. The relative viability (NCI-H1299; first compound 0.02 µM) was 1.08, the relative viability (NCI-H1299; first compound 0.2 µM) was 1.02 and the relative viability (NCI-H1299; first compound 0.6325 µM) was 1.14. For the same compound, the relative viability (NCI-H1299; first compound 2 µM) was 1.1, the relative viability (NCI-H1703; first compound 0.02 µM) was 0.321 and the relative viability (NCI-H1703; first compound 0.2 µM) was 0.243. The relative viability (NCI-H1703; first compound 0.6325 µM) was 0.189, the relative viability (NCI-H1703; first compound 2 µM) was 0.184 and the relative viability (NCI-H2023; first compound 0.02 µM) was 0.62. The relative viability (NCI-H2023; first compound 0.2 µM) was 0.409, the relative viability (NCI-H2023; first compound 0.6325 µM) was 0.485 and the relative viability (NCI-H2023; first compound 2 µM) was 0.364. For the same compound, the relative viability (NCI-H2170; first compound 0.02 µM) was 0.731, the relative viability (NCI-H2170; first compound 0.2 µM) was 0.749 and the relative viability (NCI-H2170; first compound 0.6325 µM) was 0.752. The relative viability (NCI-H2170; first compound 2 µM) was 0.464, the relative viability (NCI-H520; first compound 0.02 µM) was 0.901 and the relative viability (NCI-H520; first compound 0.2 µM) was 0.779. For the same compound, the relative viability (NCI-H520; first compound 0.6325 µM) was 0.545, the relative viability (NCI-H520; first compound 2 µM) was 0.493 and the relative viability (NCI-H727; first compound 0.02 µM) was 0.558. It also gave a relative viability (NCI-H727; first compound 0.2 µM) of 0.461, a relative viability (NCI-H727; first compound 0.6325 µM) of 0.334 and a relative viability (NCI-H727; first compound 2 µM) of 0.308.
